{"source": "ChEMBL document CHEMBL1142614", "about": "“An antimicrobial C(14) acetylenic acid from a marine sponge Oceanapia species” (2000)", "key": {"Saccharomyces cerevisiae [1]": {"system": "Saccharomyces cerevisiae", "assay": "Antimicrobial activity against Saccharomyces cerevisiae cdc5 mutant at 50 ug after 24 hrs", "type": "functional", "conditions": "read-out: IZ"}, "Saccharomyces cerevisiae [2]": {"system": "Saccharomyces cerevisiae", "assay": "Antimicrobial activity against Saccharomyces cerevisiae YAT2296 mutant at 100 ug after 24 hrs", "type": "functional", "conditions": "read-out: IZ"}, "Umbelopsis ramanniana": {"system": "Umbelopsis ramanniana", "assay": "Antimicrobial activity against Mortierella ramanniana after 24 hrs", "type": "functional, organism-based"}, "Saccharomyces cerevisiae [3]": {"system": "Saccharomyces cerevisiae", "assay": "Antimicrobial activity against Saccharomyces cerevisiae cdc5 mutant at 100 ug after 24 hrs", "type": "functional", "conditions": "read-out: IZ"}, "Penicillium chrysogenum": {"system": "Penicillium chrysogenum", "assay": "Antimicrobial activity against Penicillium chrysogenum after 24 hrs", "type": "functional, organism-based"}, "Staphylococcus aureus [4]": {"system": "Staphylococcus aureus", "assay": "Antimicrobial activity against Staphylococcus aureus at 50 ug after 24 hrs", "type": "functional", "conditions": "read-out: IZ"}, "Saccharomyces cerevisiae [5]": {"system": "Saccharomyces cerevisiae", "assay": "Antimicrobial activity against Saccharomyces cerevisiae GT160-45C at 100 ug after 24 hrs", "type": "functional", "conditions": "read-out: IZ"}, "Bacillus subtilis": {"system": "Bacillus subtilis", "assay": "Antimicrobial activity against Bacillus subtilis at 100 ug after 24 hrs", "type": "functional", "conditions": "read-out: IZ"}, "Staphylococcus aureus [6]": {"system": "Staphylococcus aureus", "assay": "Antimicrobial activity against Staphylococcus aureus at 100 ug after 24 hrs", "type": "functional", "conditions": "read-out: IZ"}, "Pseudomonas aeruginosa [7]": {"system": "Pseudomonas aeruginosa", "assay": "Antimicrobial activity against Pseudomonas aeruginosa at 100 ug after 24 hrs", "type": "functional", "conditions": "read-out: IZ"}, "Saccharomyces cerevisiae [8]": {"system": "Saccharomyces cerevisiae", "assay": "Antimicrobial activity against Saccharomyces cerevisiae act1-1 mutant at 100 ug after 24 hrs", "type": "functional", "conditions": "read-out: IZ"}, "Escherichia coli [9]": {"system": "Escherichia coli", "assay": "Antimicrobial activity against Escherichia coli at 100 ug after 24 hrs", "type": "functional", "conditions": "read-out: IZ"}, "Escherichia coli [10]": {"system": "Escherichia coli", "assay": "Antimicrobial activity against Escherichia coli at 50 ug after 24 hrs", "type": "functional", "conditions": "read-out: IZ"}, "Saccharomyces cerevisiae [11]": {"system": "Saccharomyces cerevisiae", "assay": "Antimicrobial activity against Saccharomyces cerevisiae act1-1 mutant at 50 ug after 24 hrs", "type": "functional", "conditions": "read-out: IZ"}, "Pseudomonas aeruginosa [12]": {"system": "Pseudomonas aeruginosa", "assay": "Antimicrobial activity against Pseudomonas aeruginosa at 50 ug after 24 hrs", "type": "functional", "conditions": "read-out: IZ"}, "Candida albicans": {"system": "Candida albicans", "assay": "Antimicrobial activity against Candida albicans at 100 ug after 24 hrs", "type": "functional", "conditions": "read-out: IZ"}, "Saccharomyces cerevisiae [13]": {"system": "Saccharomyces cerevisiae", "assay": "Antimicrobial activity against Saccharomyces cerevisiae YAT2296 mutant at 50 ug after 24 hrs", "type": "functional", "conditions": "read-out: IZ"}}, "note": "Calls of active or inactive are those of the source. The rule behind the calls is not given here.", "data": [{"smiles": "CC/C=C/C#C/C=C/C#CCCCC(=O)O", "values": [{"measurement": "zone of inhibition at 50 µg/disc", "setting": "Saccharomyces cerevisiae [1]", "result": 7, "unit": "mm"}, {"measurement": "zone of inhibition at 100 µg/disc", "setting": "Saccharomyces cerevisiae [2]", "result": 7, "unit": "mm"}, {"measurement": "Activity", "setting": "Umbelopsis ramanniana", "result": "inactive"}, {"measurement": "zone of inhibition at 100 µg/disc", "setting": "Saccharomyces cerevisiae [3]", "result": 7.5, "unit": "mm"}, {"measurement": "Activity", "setting": "Penicillium chrysogenum", "result": "inactive"}, {"measurement": "zone of inhibition at 50 µg/disc", "setting": "Staphylococcus aureus [4]", "result": 9.5, "unit": "mm"}, {"measurement": "zone of inhibition at 100 µg/disc", "setting": "Saccharomyces cerevisiae [5]", "result": 6.5, "unit": "mm"}, {"measurement": "zone of inhibition at 100 µg/disc", "setting": "Bacillus subtilis", "result": 11, "unit": "mm"}, {"measurement": "zone of inhibition at 100 µg/disc", "setting": "Staphylococcus aureus [6]", "result": 13.5, "unit": "mm"}, {"measurement": "zone of inhibition at 100 µg/disc", "setting": "Pseudomonas aeruginosa [7]", "result": 13, "unit": "mm"}, {"measurement": "zone of inhibition at 100 µg/disc", "setting": "Saccharomyces cerevisiae [8]", "result": 10, "unit": "mm"}, {"measurement": "zone of inhibition at 100 µg/disc", "setting": "Escherichia coli [9]", "result": 12, "unit": "mm"}, {"measurement": "zone of inhibition at 50 µg/disc", "setting": "Escherichia coli [10]", "result": 8.5, "unit": "mm"}, {"measurement": "zone of inhibition at 50 µg/disc", "setting": "Saccharomyces cerevisiae [11]", "result": 9, "unit": "mm"}, {"measurement": "zone of inhibition at 50 µg/disc", "setting": "Pseudomonas aeruginosa [12]", "result": 8.5, "unit": "mm"}, {"measurement": "zone of inhibition at 100 µg/disc", "setting": "Candida albicans", "result": 8.5, "unit": "mm"}, {"measurement": "zone of inhibition at 50 µg/disc", "setting": "Saccharomyces cerevisiae [13]", "result": 6.5, "unit": "mm"}]}]}
